Measurements as given in ChEMBL document CHEMBL4376823, “The discovery of a potent and selective third-generation EGFR kinase inhibitor as a therapy for EGFR L858R/T790M double mutant non-small cell lung cancer” (Eur J Med Chem, 2019).
Calls of active or inactive are those of the source.

Assays:
[1] = tested on: Epidermal growth factor receptor (Homo sapiens), P00533 [L858R,T790M]; assay: Inhibition of EGFR T790M/L858R mutant in human NCI-H1975 cells assessed as reduction in EGFR Y1068 phosphorylation at 5 to 100 nM incubated for 4 hrs by Western blot analysis; format: cell-based
Epidermal growth factor receptor (Homo sapiens), P00533 [L858R,T790M], sequence (P00533 whole entry T790M/L858R, looked up): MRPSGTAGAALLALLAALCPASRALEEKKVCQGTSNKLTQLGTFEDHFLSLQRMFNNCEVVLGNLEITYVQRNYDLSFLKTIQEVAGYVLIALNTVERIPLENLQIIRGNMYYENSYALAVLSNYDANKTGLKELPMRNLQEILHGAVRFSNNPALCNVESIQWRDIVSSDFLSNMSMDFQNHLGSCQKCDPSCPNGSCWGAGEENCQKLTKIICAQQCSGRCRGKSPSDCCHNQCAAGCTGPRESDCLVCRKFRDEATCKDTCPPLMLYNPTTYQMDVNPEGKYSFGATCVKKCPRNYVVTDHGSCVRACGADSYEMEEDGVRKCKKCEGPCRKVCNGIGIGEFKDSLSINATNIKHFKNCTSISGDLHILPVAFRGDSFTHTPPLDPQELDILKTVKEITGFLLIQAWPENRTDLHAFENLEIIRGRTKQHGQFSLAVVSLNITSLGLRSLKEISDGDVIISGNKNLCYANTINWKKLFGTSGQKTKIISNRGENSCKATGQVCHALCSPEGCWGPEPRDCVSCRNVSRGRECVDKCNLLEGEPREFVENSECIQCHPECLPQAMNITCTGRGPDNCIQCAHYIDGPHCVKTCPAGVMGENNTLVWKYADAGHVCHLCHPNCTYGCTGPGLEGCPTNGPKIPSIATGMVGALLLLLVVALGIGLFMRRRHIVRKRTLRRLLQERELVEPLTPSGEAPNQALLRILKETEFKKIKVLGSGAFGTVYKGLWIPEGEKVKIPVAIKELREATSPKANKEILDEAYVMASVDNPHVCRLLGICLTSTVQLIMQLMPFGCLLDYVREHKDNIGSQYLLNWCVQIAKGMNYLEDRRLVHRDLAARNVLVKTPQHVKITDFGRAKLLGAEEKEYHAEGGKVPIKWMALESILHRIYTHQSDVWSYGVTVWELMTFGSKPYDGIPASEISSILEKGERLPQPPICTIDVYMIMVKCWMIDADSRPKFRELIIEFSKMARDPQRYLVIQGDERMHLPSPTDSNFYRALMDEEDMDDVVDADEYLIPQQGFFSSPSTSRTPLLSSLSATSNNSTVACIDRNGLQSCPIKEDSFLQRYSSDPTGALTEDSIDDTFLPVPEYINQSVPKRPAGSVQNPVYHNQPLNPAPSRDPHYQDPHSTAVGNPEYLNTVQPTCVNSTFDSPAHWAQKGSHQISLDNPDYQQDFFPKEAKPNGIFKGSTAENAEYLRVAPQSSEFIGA

NCI-H1975 [2] = assay: Induction of apoptosis in human NCI-H1975 cells assessed as downregulation of Bcl-2 at 10 to 50 nM incubated for 24 hrs by Western blot analysis; format: functional, cell-based
NCI-H1975 [3] = assay: Induction of apoptosis in human NCI-H1975 cells assessed as upregulation of Bad at 10 to 50 nM incubated for 24 hrs by Western blot analysis; format: functional, cell-based
[4] = tested on: Epidermal growth factor receptor (Homo sapiens), P00533 [L858R]; assay: Inhibition of EGFR L858R mutant in human PC9 cells assessed as reduction in EGFR Y1068 phosphorylation at 5 to 100 nM incubated for 4 hrs by Western blot analysis; format: cell-based
Epidermal growth factor receptor (Homo sapiens), P00533 [L858R], sequence (P00533 whole entry L858R): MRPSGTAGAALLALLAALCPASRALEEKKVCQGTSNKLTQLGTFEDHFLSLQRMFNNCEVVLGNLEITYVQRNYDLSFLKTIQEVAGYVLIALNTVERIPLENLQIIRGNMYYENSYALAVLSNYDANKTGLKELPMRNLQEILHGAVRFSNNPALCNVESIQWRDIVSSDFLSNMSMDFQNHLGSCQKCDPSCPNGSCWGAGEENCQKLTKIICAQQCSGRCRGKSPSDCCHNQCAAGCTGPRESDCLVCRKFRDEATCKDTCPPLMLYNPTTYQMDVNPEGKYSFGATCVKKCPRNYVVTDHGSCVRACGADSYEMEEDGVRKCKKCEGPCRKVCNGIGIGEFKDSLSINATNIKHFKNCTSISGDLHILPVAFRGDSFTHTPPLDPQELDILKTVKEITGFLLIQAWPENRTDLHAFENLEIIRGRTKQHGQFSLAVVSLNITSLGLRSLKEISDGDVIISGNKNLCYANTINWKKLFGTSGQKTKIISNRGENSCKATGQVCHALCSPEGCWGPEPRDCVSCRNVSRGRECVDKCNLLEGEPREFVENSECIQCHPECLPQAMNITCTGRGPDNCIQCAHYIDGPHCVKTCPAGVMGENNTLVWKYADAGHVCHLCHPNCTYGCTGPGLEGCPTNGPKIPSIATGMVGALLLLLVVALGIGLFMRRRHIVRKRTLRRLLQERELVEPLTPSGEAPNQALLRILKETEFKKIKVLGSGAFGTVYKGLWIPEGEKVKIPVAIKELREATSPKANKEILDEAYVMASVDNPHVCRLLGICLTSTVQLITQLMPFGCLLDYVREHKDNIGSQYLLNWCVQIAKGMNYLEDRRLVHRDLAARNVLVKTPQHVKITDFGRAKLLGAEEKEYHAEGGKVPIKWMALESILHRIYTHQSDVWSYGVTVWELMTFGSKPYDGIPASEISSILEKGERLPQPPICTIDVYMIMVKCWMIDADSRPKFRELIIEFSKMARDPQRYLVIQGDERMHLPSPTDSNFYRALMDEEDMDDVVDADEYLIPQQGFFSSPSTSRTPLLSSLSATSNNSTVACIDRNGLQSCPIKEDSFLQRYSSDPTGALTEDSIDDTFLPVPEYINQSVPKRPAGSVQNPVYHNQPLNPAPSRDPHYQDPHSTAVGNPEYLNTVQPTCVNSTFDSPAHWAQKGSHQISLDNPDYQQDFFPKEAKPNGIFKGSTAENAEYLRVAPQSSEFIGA

[5] = tested on: Epidermal growth factor receptor (Homo sapiens), P00533 [L858R]; assay: Inhibition of EGFR L858R mutant in human PC9 cells assessed as reduction in AKT phosphorylation incubated for 4 hrs by Western blot analysis; format: cell-based
[6] = tested on: Epidermal growth factor receptor (Homo sapiens), P00533 [L858R]; assay: Inhibition of EGFR L858R mutant in human PC9 cells assessed as reduction in AKT phosphorylation at 5 to 100 nM incubated for 4 hrs by Western blot analysis; format: cell-based
[7] = target: T1, Epidermal growth factor receptor (Homo sapiens, UniProt P00533); assay: Inhibition of EGFR in human NCI-H292 cells assessed as reduction in AKT phosphorylation incubated for 4 hrs by Western blot analysis; format: cell-based
T1 sequence (P00533 whole entry): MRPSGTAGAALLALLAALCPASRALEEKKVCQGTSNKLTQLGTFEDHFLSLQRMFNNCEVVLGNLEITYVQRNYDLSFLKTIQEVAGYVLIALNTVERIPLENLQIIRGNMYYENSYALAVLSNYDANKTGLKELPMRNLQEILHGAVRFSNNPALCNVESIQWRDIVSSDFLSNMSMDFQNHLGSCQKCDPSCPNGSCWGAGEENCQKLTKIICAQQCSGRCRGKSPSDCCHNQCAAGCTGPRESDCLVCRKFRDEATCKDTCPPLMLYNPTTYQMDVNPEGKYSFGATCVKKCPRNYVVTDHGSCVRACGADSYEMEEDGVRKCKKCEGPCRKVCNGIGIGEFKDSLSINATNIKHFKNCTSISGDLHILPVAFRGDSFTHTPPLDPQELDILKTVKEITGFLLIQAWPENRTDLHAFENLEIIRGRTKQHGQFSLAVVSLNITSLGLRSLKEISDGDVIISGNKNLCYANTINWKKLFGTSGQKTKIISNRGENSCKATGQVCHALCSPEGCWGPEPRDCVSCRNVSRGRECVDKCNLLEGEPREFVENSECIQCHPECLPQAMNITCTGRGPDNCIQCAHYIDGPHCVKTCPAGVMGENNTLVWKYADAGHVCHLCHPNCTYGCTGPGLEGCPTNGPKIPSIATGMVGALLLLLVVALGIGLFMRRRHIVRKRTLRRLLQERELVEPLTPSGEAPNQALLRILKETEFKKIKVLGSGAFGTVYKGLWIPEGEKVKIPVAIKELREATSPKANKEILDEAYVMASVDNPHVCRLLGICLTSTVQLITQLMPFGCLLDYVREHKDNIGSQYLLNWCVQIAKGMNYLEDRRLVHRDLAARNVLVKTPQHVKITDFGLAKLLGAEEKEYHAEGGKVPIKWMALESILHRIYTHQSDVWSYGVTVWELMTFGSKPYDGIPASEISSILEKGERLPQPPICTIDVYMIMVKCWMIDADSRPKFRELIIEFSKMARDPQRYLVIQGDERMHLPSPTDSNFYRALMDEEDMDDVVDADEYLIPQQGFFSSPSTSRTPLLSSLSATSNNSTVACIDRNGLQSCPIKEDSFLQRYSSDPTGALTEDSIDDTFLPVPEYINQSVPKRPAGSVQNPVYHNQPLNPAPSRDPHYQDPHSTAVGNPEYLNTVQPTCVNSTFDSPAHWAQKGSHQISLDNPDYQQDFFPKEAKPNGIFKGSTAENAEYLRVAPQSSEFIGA

NCI-H1975 [8] = assay: Induction of apoptosis in human NCI-H1975 cells assessed as upregulation of Bax at 10 to 50 nM incubated for 24 hrs by Western blot analysis; format: functional, cell-based
[9] = tested on: Epidermal growth factor receptor (Homo sapiens), P00533 [L858R,T790M]; assay: Inhibition of EGFR T790M/L858R mutant in human NCI-H1975 cells assessed as reduction in AKT phosphorylation incubated for 4 hrs by Western blot analysis; format: cell-based
[10] = target: T1, Epidermal growth factor receptor; assay: Inhibition of EGFR in human NCI-H292 cells assessed as reduction in AKT phosphorylation at 5 to 100 nM incubated for 4 hrs by Western blot analysis; format: cell-based
[11] = tested on: Epidermal growth factor receptor (Homo sapiens), P00533 [L858R,T790M]; assay: Inhibition of EGFR T790M/L858R mutant in human NCI-H1975 cells assessed as reduction in EGFR Y1068 phosphorylation incubated for 4 hrs by Western blot analysis; format: cell-based
[12] = tested on: Epidermal growth factor receptor (Homo sapiens), P00533 [L858R,T790M]; assay: Inhibition of EGFR T790M/L858R mutant in human NCI-H1975 cells assessed as reduction in AKT phosphorylation at 5 to 100 nM incubated for 4 hrs by Western blot analysis; format: cell-based
[13] = target: T1, Epidermal growth factor receptor; assay: Inhibition of EGFR in human NCI-H292 cells assessed as reduction in EGFR Y1068 phosphorylation at 5 to 100 nM incubated for 4 hrs by Western blot analysis; format: cell-based
NCI-H1975 [14] = assay: Antitumor activity against human NCI-H1975 cells xenografted in ig dosed BALB/c mouse assessed as tumor growth inhibition for one week; format: functional, organism-based
NCI-H1975 [15] = assay: Induction of apoptosis in human NCI-H1975 cells assessed as reduction in mitochondrial membrane potential at 5 to 50 nM incubated for 24 hrs by JC-1 staining based laser scanning confocal microscopy; format: functional, cell-based

C=CC(=O)Nc1cc(Nc2nccc(-c3cn(C)c4ccccc34)n2)c(OC)cc1[S+]([O-])CCN(C)C (single isomer, unassigned; (-))
active: inhibition [1] | Activity (NCI-H1975 [2]) | Activity (NCI-H1975 [3]) | inhibition [4] | inhibition [5] Dose-dependent effect | inhibition [6] | inhibition [7] Dose-dependent effect | Activity (NCI-H1975 [8]) | inhibition [9] Dose-dependent effect | inhibition [10] | inhibition [11] Dose-dependent effect | inhibition [12] | inhibition [13] | TGI (NCI-H1975 [14]) Dose-dependent effect | Activity (NCI-H1975 [15]) Dose-dependent effect
